The subject of this assay is Mus musculus. The assay can be described thus: In vivo antitumor activity against P-388 leukemia in mice was determined at 25 mg/kg/day level. It is filed as functional.

The term T/C denotes the ratio of treated to control. Molecule `COC1=C2C(N)Cc3cc(OC)c(O)cc3C2C[C@H](O)[C@@H]1O` (stereo partly specified) came in with a T/C of 146%.

The values are drawn from ChEMBL document CHEMBL1128877, “Isosinococuline, a novel antitumor morphinane alkaloid from Cocculus trilobus” (1995).
